Where two headings read alike, the source gives them in different places.

One test concerns SK-MeI-28 melanoma cells. Kind of test: Dosing study versus chemotherapeutic agents, killing of SK-MeI-28 melanoma cells. It is filed as cell-based, human. To be noted: SK-MeI-28, mutated p53. As to the method:
(§1) An initial dosing study comparing z-Leu-Leu-Nle-CHO against three different chemotherapeutic agents (i.e., adriamycin, etoposide, and cisplatin) was performed to evaluate the relative effectiveness of z-Leu-Leu-Nle-CHO in killing melanoma cells. In agreement with a previous report by Soengas, M. S. et al., 2001, Nature 409.207-211, SK-MeI-28 cells, carrying a mutated p53, were relatively resistant to killing by adriamycin, as well as to killing by other chemotherapeutic agents. For SK-MeI-28 melanoma cells, the maximal apoptotic response for adriamycin, etoposide, cisplatin, and z-Leu-Leu-Nle-CHO was 12.0%, 2.6%, 4.0%, and 29.4%, respectively. For RJ002L melanoma cells, the maximal apoptotic response for adriamycin, etoposide, cisplatin, and z-Leu-Leu-Nle-CHO was 23.9%, 12.7%, 3.4%, and 45.7%, respectively.

A further test has as its system RJ002L melanoma cells. Kind of test: Dosing study versus chemotherapeutic agents, killing of RJ002L melanoma cells. It is filed as cell-based, human. As to the method: as §1
The subject of another test is NOXA. Nature of the test: Western blot of pro-survival and pro-apoptotic proteins in melanoma cells. Format: cell-based, human. The settings on record: several melanoma cell lines, similar time points; data not shown. As to the method:
To assess the effect of z-Leu-Leu-Nle-CHO on pro-apoptotic proteins, RJ002L pulmonary metastases melanoma cells were grown in RPMI supplemented with 10% FBS. Highly proliferating cells (i.e., cells that had reached approximately 30% confluency) were exposed to z-Leu-Leu-Nle-CHO by replenishing the culture media with media containing z-Leu-Leu-Nle-CHO (10 μM) (experimental group) or media without z-Leu-Leu-Nle-CHO (control group) and the cells were incubated for a specified period of time prior to harvesting the cells for further analysis.
Western blot analyses following z-Leu-Leu-Nle-CHO and control treatment of RJ002L melanoma cells were performed to determine the effect of z-Leu-Leu-Nle-CHO on pro-survival and pro-apoptotic proteins. Whole cell extracts were prepared and analyzed as described by Denning, M. F. et al., 1998, J Biol Chem 273: 29995-30002, 1998. The enriched mitochondria pellet and mitochondria-free cytosol of melanoma cells were prepared with the APO ALERT cell fraction kit (Clontech Laboratories, Inc. Palo Alto, Calif.) according to the manufacturer's instructions. For Western blot analysis, equal amounts of protein extracted from each sample (20-30 μg) were loaded into pre-cast 7% NuPAGE Tris-acetate gels or 4-12% NuPAGE Bis-tris gels (Invitrogen). Proteins were separated by SDS-PAGE and transferred to polyvinylidene difluoride membranes (Bio-Rad, Hercules, Calif.) using Invitrogen's buffering system. The indicated primary antibodies were incubated for indicated period of time, washed, and visualized by incubation with horseradish peroxidase-conjugated secondary antibodies and chemiluminescent reagents (Roche Diagnostics Corporation, Indianapolis, Ind.). Antibodies used were as follows: From Santa Cruz Biotechnology: Bcl-2 (SC-7382), BCl-xL (SC-634), Mcl-1 (SC-819), survivin (SC-10811), Bax (SC-493), Bak (SC-832), Bim (SC-11425), PUMA (SC-19187), p53 (SC-126), and GADD45 (SC-796); From Cell Signaling: Bid (#2002), and cleaved caspase 9 (9501); NOXA (OP180—Oncogene Research Products), Apaf-1 (559683-BD Bioscience), Smac/Diablo (IMG-248-Imgenex), cytochrome C (part of kit—Apo Alert™ cell fraction kit—Clontech Laboratories, Inc.—Palo Alto, Calif.), PARP (Pharmingen, San Diego, Calif.) and β-actin (Sigma Chemical Co., St. Louis, Mo.). Secondary antibodies anti-goat, anti-mouse, anti-rabbit and anti-rat (IgG-HRP) were purchased from Vector Laboratories (Burlingame, Calif.), Santa Cruz Biotechnology and Amersham Biosciences.
To determine if p53 status influences induction of NOXA, NOXA induction in z-Leu-Leu-Nle-CHO-treated melanoma cell lines (10 μM) containing p53 mutations (i.e. C8161, SK-MeI-28, MUM2B) were examined using Western blot analysis as described above and compared to that of Western blot results from z-Leu-Leu-Nle-CHO-treated melanoma cell lines (10 μM) having wild-type p53 (RJ002L, SK-MeI-100). […] In contrast, C8161, which carries a R196Stop mutation in only one allele, has p53 expression similar to that observed in wild-type cell lines. […] NOXA induction occurred earlier in SK-MeI-100 cells than in the other tested cell lines (FIG. 2C). Apaf-1 levels were not increased in response to z-Leu-Leu-Nle-CHO (data not shown).

Test [1] has as its system CaSki human cervical cancer cells. Kind of test: Cell growth inhibition assay in CaSki cervical cancer cells (crystal violet). It is filed as cell-based. To be noted: 48 hrs, read-out: IC50 of cisplatin. As for the experimental part:
The cell growth inhibition assay was performed in a 96-well plate format. Inhibition was assessed by monitoring the protein content in each well using the crystal violet staining method as described by Skehan et al., 1990, J Natl Cancer Inst 82:1107-1112 and Prochaska et al., 1988, Anal Biochem 169:328-336. Briefly, cells were plated at a density of 2×10^4 cells/ml in 200 μl of DMEM supplemented with 10% FBS. The cells were transfected with siRNAs ([…] siRNA oligos/well) using Oligofectamine Transfection Reagents (InVitrogen) according to manufacturer's instructions. Twenty-four hours post-transfection, the media was decanted, 190 μl of fresh media was added to each well, and 10 μl of cisplatin (4 mM) dissolved in 10% DMSO was added to the wells as a series 2-fold dilutions (final concentration of cisplatin in the wells ranged from 0.5-200 μM). The cells were incubated with cisplatin for 48 hrs, the media was decanted, and the cells were submerged with 200 μl of 0.2% crystal violet in 2% ethanol for 10 min. The plates were rinsed for 2 min with tap water. The bound dye was solublized by incubation at 37° C. for 1 h with 200 μl of 0.5% sodium dedecyl sulfate in 50% ethanol. The plates were then scanned with an ELISA reader at 562 nm. The percentage cell growth inhibition mediated by cisplatin was calculated as: % inhibition=[1-(OD of cisplatin-treated cells/OD DMSO-treated control cells)]×100/100.
CaSki human cervical cancer cells treated for 48 hrs with z-Leu-Leu-Nle-CHO alone were tested for cell growth inhibition. The cell growth inhibition assay was performed in a 96-well plate format. Inhibition was assessed by monitoring the protein content in each well using the crystal violet staining method Skehan, P. et al., 1990, J Natl Cancer Inst 82:1107-1112. Briefly, cells were plated at a density of 2×10^4 cells/ml in 200 μl of DMEM supplemented with 10% FBS. After pre-incubation period of 24 h, the media was decanted, 190 μl of fresh media was added to each well, and 10 μl (150 μM) of z-Leu-Leu-Nle-CHO dissolved in 10% DMSO was added to the wells as a series 2-fold dilutions (final concentration of cisplatin in the wells ranged from 0.05-7.5 μM). The cells were incubated with z-Leu-Leu-Nle-CHO for 48 hrs, the media was decanted, and the cells were submerged with 200 μl of 0.2% crystal violet in 2% ethanol for 10 min. The plates were rinsed for 2 min with tap water. The bound dye was solublized by incubation at 37° C. for 1 h with 200 μl of 0.5% sodium dedecyl sulfate in 50% ethanol. The plates were then scanned with an ELISA reader at 562 nm. The percentage cell growth inhibition mediated by test agents was calculated as: % inhibition=[1-(OD of z-Leu-Leu-Nle-CHO-treated cells/OD DMSO-treated control cells)]×100/100.
To determine whether z-Leu-Leu-Nle-CHO treatment potentiates the effect of cisplatin on human […] cancer cells, the CaSki cells were treated for 48 h with 0.1-0.8 μM z-Leu-Leu-Nle-CHO and various concentrations of cisplatin (2-fold dilutions of a cisplatin solution to produce final concentrations of 1.6-200 μM cisplatin). Following the z-Leu-Leu-Nle-CHO and cisplatin treatment, the cells were tested for growth inhibition as described above.
Isobologram analysis was performed by measuring the IC50 values of cisplatin in the presence of various concentrations of z-Leu-Leu-Nle-CHO. These IC50 values were plotted with SigmaPlot, and a straight line was traced between the IC50 values of cells treated with either cisplatin or z-Leu-Leu-Nle-CHO alone.

For the compound `COc1cccc2c1C(=O)c1c(O)c3c(c(O)c1C2=O)C[C@@](O)(C(=O)CO)C[C@@H]3O[C@H]1C[C@H](N)[C@H](O)[C@H](C)O1` [adriamycin], the maximal apoptotic response with SK-MeI-28 melanoma cells came out at 12.0%; in the test on RJ002L melanoma cells, 23.9%. The “NOXA induction by DNA damaging agents” value in the test on NOXA is given as “did not induce NOXA”.
As for `N.N.[Cl][Pt][Cl]` [cisplatin], the maximal apoptotic response is on record as 4.0% with SK-MeI-28 melanoma cells and 3.4% in the test with RJ002L melanoma cells. Besides, the “NOXA induction by DNA damaging agents” value with NOXA is given as “did not induce NOXA”. Besides, the figures for the half-inhibitory concentration (IC50) in test [1] (in combination with Notch-1 siRNA) and in test [1] (without Notch-1 siRNA) were 0.46 µM and 27.3 µM, respectively.
In the case of `COc1cc([C@@H]2c3cc4c(cc3[C@@H](O[C@@H]3O[C@@H]5CO[C@@H](C)O[C@H]5[C@H](O)[C@H]3O)[C@H]3COC(=O)[C@H]23)OCO4)cc(OC)c1O` [etoposide], the maximal apoptotic response in the test on SK-MeI-28 melanoma cells is 2.6%; with RJ002L melanoma cells, 12.7%. Further, the “NOXA induction by DNA damaging agents” value with NOXA is recorded as “did not induce NOXA”.

These data come from patent US20080220416A1, “Compositions for Inhibiting Cell Growth and Inducing Apoptosis in Cancer Cells and Methods of Use Thereof” (THE BOARD OF TRUSTEES OF THE UNIVERSITY OF ILLINOI, priority 2004, published 2008).
